Results taken from PMC6395927, “Rufomycin Targets ClpC1 Proteolysis in Mycobacterium tuberculosis and M. abscessus” (Antimicrobial Agents and Chemotherapy, 2019).
≈ marks a conversion by molar mass, not a printed value. Entries after “also recorded” stand apart in the source; their conditions may differ. Like-named read-outs stand apart in the source and are kept apart here.

What was measured:
[1] = tested on: M. tuberculosis strain H37Rv (ATCC 27294); assay: microbe, parasite or virus in culture; format: cell-based, Mycobacterium tuberculosis; settings: Mycobacterium tuberculosis
[2] = tested on: M. tuberculosis 5 global clade representatives; assay: microbe, parasite or virus in culture; format: cell-based; settings: Mycobacterium tuberculosis, read-out: MICs
[3] = tested on: M. smegmatis (ATCC 700084); assay: microbe, parasite or virus in culture; format: cell-based; settings: Mycolicibacterium smegmatis, ATCC700084; M. smegmatis; read-out: MIC
M. avium (ATCC 15769) = assay: microbe, parasite or virus in culture; format: cell-based; settings: Mycobacterium avium, ATCC15769; M. avium; read-out: MIC
M. tuberculosis = assay: microbe, parasite or virus in culture; format: cell-based, Mycobacterium tuberculosis
[4] = tested on: nonreplicating cultures of M. tuberculosis; assay: microbe, parasite or virus in culture; format: cell-based, Mycobacterium tuberculosis
[5] = tested on: M. abscessus in bone marrow-derived macrophages; assay: Intracellular survival assay in BMDMs; format: cell-based, Mycobacterium abscessus; settings: 2 days, 5 and 10 μM
Method: Bone marrow-derived macrophages (BMDMs) were isolated from the femurs and tibias of C57BL/6 mice (5 to 6 weeks old) and differentiated by culturing for 4 days in DMEM containing 10% (vol/vol) FBS and 25 ng/ml of macrophage colony-stimulating factor (M-CSF; R&D, Minneapolis, MN). The final densities of differentiated BMDMs were 1 × 10^5 to 3 × 10^5 per well in 48-well plates. Cells were infected for 2 h with M. abscessus at a multiplicity of infection (MOI) of 5. Next cells were washed with PBS and incubated in DMEM containing 50 μg/ml of gentamicin (Sigma-Aldrich). RUFI and clarithromycin (CLR) were added to the media to achieve final concentrations of 5 and 10 μM, respectively, and then the cultures were incubated for 2 days. The supernatant was removed, and cells were lysed in sterile distilled water for 30 min at 37°C. Cell lysates were serially diluted, plated on 7H10 agar, and incubated at 37°C for 2 to 3 days for enumeration of CFU.

ClpC1 = ClpC1 (Mycobacterium tuberculosis, UniProt P9WPC9); format: biochemical, M. tuberculosis
Chain of ClpC1 (P9WPC9 whole entry): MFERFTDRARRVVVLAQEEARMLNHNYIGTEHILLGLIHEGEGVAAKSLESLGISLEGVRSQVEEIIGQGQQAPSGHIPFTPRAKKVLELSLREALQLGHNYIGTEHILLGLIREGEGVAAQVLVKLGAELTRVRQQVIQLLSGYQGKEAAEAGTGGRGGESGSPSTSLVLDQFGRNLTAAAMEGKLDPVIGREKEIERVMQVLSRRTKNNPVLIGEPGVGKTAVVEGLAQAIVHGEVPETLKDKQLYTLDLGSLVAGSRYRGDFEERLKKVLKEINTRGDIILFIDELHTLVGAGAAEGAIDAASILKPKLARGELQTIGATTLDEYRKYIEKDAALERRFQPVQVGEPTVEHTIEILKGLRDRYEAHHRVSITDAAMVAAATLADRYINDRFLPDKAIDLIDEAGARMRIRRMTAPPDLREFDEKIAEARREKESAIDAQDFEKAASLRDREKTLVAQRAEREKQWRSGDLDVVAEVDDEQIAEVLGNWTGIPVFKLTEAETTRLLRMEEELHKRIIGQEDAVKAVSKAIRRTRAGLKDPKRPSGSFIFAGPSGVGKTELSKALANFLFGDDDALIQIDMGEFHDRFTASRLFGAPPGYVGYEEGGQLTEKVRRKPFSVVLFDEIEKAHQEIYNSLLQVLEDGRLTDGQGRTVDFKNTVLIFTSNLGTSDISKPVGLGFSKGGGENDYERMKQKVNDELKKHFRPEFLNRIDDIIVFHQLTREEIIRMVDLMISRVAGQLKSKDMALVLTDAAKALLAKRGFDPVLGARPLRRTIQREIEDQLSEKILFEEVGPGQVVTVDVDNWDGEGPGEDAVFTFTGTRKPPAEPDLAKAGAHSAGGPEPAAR

Q: Which results are given for `C/C=C/C[C@@H]1NC(=O)[C@H](CC(C)C)N2C(=O)C(C[C@H](C)[C@H]2O)N(C)C(=O)[C@H](C)NC(=O)[C@H](Cc2ccc(O)c([N+](=O)[O-])c2)NC(=O)[C@H](CC(C)C)N(C)C(=O)[C@H](Cc2cn(C(C)(C)C3CO3)c3ccccc23)NC1=O` (stereo partly drawn) [RUFI, rufomycin I]?
A: MIC [1]: 0.02 µM (≈ 0.0208 µg/mL); MIC ([1]; read-out: MIC against M. tuberculosis): 0.01 µM (≈ 0.0104 µg/mL); MIC [2]: 0.003 to 0.011 µM (≈ 0.00313 to 0.0115 µg/mL); MIC [3]: 0.073 µM (≈ 0.0761 µg/mL); MIC (M. avium (ATCC 15769)): 1.75 µM (≈ 1.82 µg/mL); MBC (minimum bactericidal concentration) (M. tuberculosis): 0.40 µM (≈ 0.417 µg/mL); MBC (M. tuberculosis; Mycobacterium tuberculosis, read-out: MBC (minimum bactericidal concentration)): 0.4 µM (≈ 0.417 µg/mL); MBC [4]: lacks this activity; MIC ([4]; Mycobacterium tuberculosis): > 10 µM; inhibition at 10 µM ([4]; Mycobacterium tuberculosis): 75%; activity against M. abscessus in BMDMs (CFU) [5]: as effective as clarithromycin; effect on ClpC1 ATPase activity (ClpC1): no significant effect; also recorded: mild and insignificant inhibitory effect
